{"source": "patent US20150045358A1", "about": "“PHARMACEUTICAL COMPOSITION FOR TREATING DISORDERS ASSOCIATED WITH INSULIN RESISTANCE” (National Central University, priority 2012, published 2015)", "key": {"ERK1/2": {"tested_on": "ERK1/2", "assay": "ERK1/2 phosphorylation in differentiated 3T3-L1 adipocytes (Western blotting)", "type": "cell-based", "details": "for basal level of phosphorylation of ERK1/2: inhibitor 1 μM alone, absence of ET-1", "experimental": "(§1) Referring to FIGS. 2A, 2B, 2C, 2D, and 2E which are presented to detect the time-dependent effect of ET-1 on ET-1 signaling molecules, including ERK1 /2, JNKs, p38, […] or STAT3 proteins, the differentiated 3T3-L1 adipocytes are treated with or without 100 nM ET-1 at different time points, such as 2, 5, 15, 30, 120, and 240 minutes. After ET-1 incubation, the total protein amounts and the phosphorylation levels of each ET-1 signaling molecule are determined by Western blotting analysis.\n(§2) Referring to FIGS. 3A, 3B, and 3C which are presented to further study the endothelin receptor-dependent of ET-1 on the phosphorylation of downstream signaling molecules and on resistin mRNA expression, the differentiated 3T3-L1 adipocytes are pretreated with or without either 1 μM BQ610 (an ETAR inhibitor) or 1 μM BQ788 (an endothelin type B receptor (ETBR) inhibitor) for 1 hour, and then incubated with 100 nM ET-1. After different time points of ET-1 treatment, ET-1 signaling molecules, such as ERK1/2, JNKs, P38, AKT, and STAT3 proteins, and resistin mRNA levels are determined by Western blotting analysis and PCR analysis, respectively. FIG. 3A, 3B, and 3C are presented with or without 5, 15, and 120 minutes of 100 nM ET-1 treatments, respectively.\n(§3) Referring to FIGS. 4A, 4B, 4C, 4D, and 4E which are presented to study the effect of the inhibitors of ET-1 signaling molecules, the differentiated 3T3-L1 adipocytes are pretreated with or without the specific inhibitors of ERK1/2, JNK, AKT, STAT3, or p38 for 30 minutes and then incubated with 100 nM ET-1. These inhibitors comprise 1,4-diamino-2,3-dicyano-1,4-bis [2-aminophenylthio]butadiene (U0126, 25 μM; an ERK1/2 inhibitor), 2-(2-Amino-3-methoxyphenyl)-4H-1-benzopyran-4-one (PD98059, 50 μM; an ERK1/2 inhibitor), anthrapyrazolone (SP600125, 20 μM; a JNK inhibitor), SB203580 (20 μM; a p38 inhibitor), 2-(4-morpholinyl)-8-phenyl-4H-1-benzopyran-4-one (LY294002, 50 μM; a PI3K/AKT inhibitor), wortmannin (0.2 μM; a PI3K/AKT inhibitor), and tyrphostin (AG490, 20 μM; a STAT3 inhibitor). After 5, 15 and 120 minutes of 100-nM ET-1 treatment, the total amounts and the phosphorylation level of the above ET-1 signaling molecules corresponding to the ET-1 stimulated increases in resistin mRNA level are determined by Western blotting analysis."}, "JNKs": {"tested_on": "JNKs", "assay": "JNKs phosphorylation in differentiated 3T3-L1 adipocytes (Western blotting)", "type": "cell-based", "details": "for basal level of phosphorylation of JNKs: inhibitor 1 μM alone, absence of ET-1; for ET-1-stimulated phosphorylation of JNKs: inhibitor 1 μM pretreated 1 hour, then 100 nM ET-1 for 5 or 15 minutes", "experimental": "as §1, §2, §3"}, "AKT": {"tested_on": "AKT", "assay": "AKT phosphorylation in differentiated 3T3-L1 adipocytes (Western blotting)", "type": "cell-based", "details": "for basal level of phosphorylation of AKT: inhibitor 1 μM alone, absence of ET-1", "experimental": "as §1, §2, §3"}, "STAT3": {"tested_on": "STAT3", "assay": "STAT3 phosphorylation in differentiated 3T3-L1 adipocytes (Western blotting)", "type": "cell-based", "details": "for basal level of phosphorylation of STAT3: inhibitor 1 μM alone, absence of ET-1", "experimental": "as §1, §2, §3"}, "resistin mRNA": {"tested_on": "resistin mRNA", "assay": "resistin mRNA level in differentiated 3T3-L1 adipocytes (RT-PCR, real time-PCR)", "type": "cell-based, mouse", "details": "for resistin mRNA level: pretreatment with inhibitor 1 μM alone, no ET-1", "experimental": "Referring to FIGS. 1A and 1B which are presented to detect the time-dependent effect of ET-1 on resistin mRNA level, the differentiated 3T3-L1 adipocytes are treated with 100 nM ET-1 at different time periods, including 0, 0.25, 0.5, 1, 2, 4, 6, 8, 12, and 24 hours, After the treatment, resistin mRNA is analyzed by the respective method of reverse transcription-polymerase chain reaction (RT-PCR) (FIG. 1A) and real time-PCR. The forward and reverse primers are [NT] and [NT] for mouse GAP DH and [NT] and [NT] for mouse resistin, respectively. […] The duration of ET-1 incubation that causes the maximum effect on resistin mRNA levels is 2 hours. Referring to FIGS. 1C and 1D which are presented to detect the concentration-dependent effect of ET-1 on resistin mRNA level, the differentiated 3T3-L1 adipocytes are treated with different concentrations of ET-1, such as 0, 10, 50, and 100 nM. After 2 hours of ET-1 incubation, resistin mRNA levels are determined by RT-PCR (FIG. 1C) and by real time-PCR (FIG. 1D). Levels of resistin mRNA are increased by 50%, 100%, and 200% after 10, 50 and 100 nM ET-1 are respectively added. According to the results, 100 nM ET-1 is used in the following embodiments of the present invention for treatment of the differentiated 3T3-L1 adipocytes. […] After different time points of ET-1 treatment, ET-1 signaling molecules, such as ERK1/2, JNKs, P38, AKT, and STAT3 proteins, and resistin mRNA levels are determined by Western blotting analysis and PCR analysis, respectively."}, "p38": {"tested_on": "p38", "assay": "p38 phosphorylation in differentiated 3T3-L1 adipocytes (Western blotting)", "type": "cell-based", "experimental": "as §1\nas §2, with “treatments, respectively. […]” for “treatments, respectively.”"}, "resistin protein": {"tested_on": "resistin protein", "assay": "resistin protein level in differentiated 3T3-L1 adipocytes (Western blotting)", "type": "cell-based", "experimental": "Referring to FIG. 4F which detects the concentration-dependent effect of ET-1 on resistin protein level, the differentiated 3T3-L1 adipocytes are treated with different concentrations of ET-1, such as 0, 10, 50, and 100 nM. After ET-1 incubation, resistin protein levels are determined by Western blotting analysis. Levels of resistin protein are increased by about 120%, 130%, and 140% after 10, 50 and 100 nM ET-1 are respectively added."}, "[1]": {"details": "inhibitor 1 μM pretreated 1 hour, then 100 nM ET-1 for 5 or 15 minutes"}, "[2]": {"details": "inhibitor 1 μM, in the presence and absence of ET-1"}, "[3]": {"details": "inhibitor 50 μM pretreated 30 minutes, then 100 nM ET-1"}, "[4]": {"details": "inhibitor 20 μM pretreated 30 minutes, then 100 nM ET-1"}, "[5]": {"details": "100 nM ET-1, time points 2-240 minutes"}, "[6]": {"details": "100 nM ET-1 alone for 5 minutes or 15 minutes"}}, "note": "“Also recorded” adds a separate entry of the source."}
{"molecule": "CC(C)C[C@H](NC(=O)N1CCCCCC1)C(=O)N[C@H](Cc1cn(C=O)c2ccccc12)C(=O)N[C@H](Cc1c[nH]c2ccccc12)C(=O)O", "note": "[BQ610]", "values": [{"measurement": "basal level of phosphorylation of ERK1/2", "setting": "ERK1/2", "result": "does not alter"}, {"measurement": "ET-1-stimulated phosphorylation of ERK1/2", "setting": "ERK1/2; [1]", "result": "inhibits"}, {"measurement": "basal level of phosphorylation of JNKs", "setting": "JNKs", "result": "does not alter"}, {"measurement": "ET-1-stimulated phosphorylation of JNKs", "setting": "JNKs", "result": "inhibits"}, {"measurement": "basal level of phosphorylation of AKT", "setting": "AKT", "result": "does not alter"}, {"measurement": "ET-1-stimulated phosphorylation of AKT", "setting": "AKT; [1]", "result": "inhibits"}, {"measurement": "basal level of phosphorylation of STAT3", "setting": "STAT3", "result": "does not alter"}, {"measurement": "ET-1-stimulated phosphorylation of STAT3", "setting": "STAT3; [1]", "result": "inhibits"}, {"measurement": "ET-1-stimulated resistin mRNA expression", "setting": "resistin mRNA; inhibitor 1 μM pretreated 1 hour, then 100 nM ET-1 for 120 minutes", "result": "suppresses"}, {"measurement": "resistin mRNA level", "setting": "resistin mRNA", "result": "does not alter"}]}
{"molecule": "CCCC[C@@H](NC(=O)[C@@H](Cc1cn(C(=O)OC)c2ccccc12)NC(=O)[C@H](CC(C)(C)C)NC(=O)N1[C@H](C)CCC[C@@H]1C)C(=O)O", "note": "[BQ788]", "values": [{"measurement": "basal level of phosphorylation of ERK1/2", "setting": "ERK1/2", "result": "does not alter"}, {"measurement": "ET-1-stimulated phosphorylation of ERK1/2", "setting": "ERK1/2; [1]", "result": "does not alter"}, {"measurement": "total amounts of ERK1/2 protein", "setting": "ERK1/2; [2]", "result": "does not alter"}, {"measurement": "basal level of phosphorylation of JNKs", "setting": "JNKs", "result": "does not alter"}, {"measurement": "ET-1-stimulated phosphorylation of JNKs", "setting": "JNKs", "result": "does not alter"}, {"measurement": "total amounts of JNKs protein", "setting": "JNKs; [2]", "result": "does not alter"}, {"measurement": "basal level of phosphorylation of AKT", "setting": "AKT", "result": "does not alter"}, {"measurement": "ET-1-stimulated phosphorylation of AKT", "setting": "AKT; [1]", "result": "does not alter"}, {"measurement": "total amounts of AKT protein", "setting": "AKT; [2]", "result": "does not alter"}, {"measurement": "basal level of phosphorylation of STAT3", "setting": "STAT3", "result": "does not alter"}, {"measurement": "ET-1-stimulated phosphorylation of STAT3", "setting": "STAT3; [1]", "result": "does not alter"}, {"measurement": "total amounts of STAT3 protein", "setting": "STAT3; [2]", "result": "does not alter"}, {"measurement": "resistin mRNA level", "setting": "resistin mRNA", "result": "does not alter"}]}
{"molecule": "O=c1cc(N2CCOCC2)oc2c(-c3ccccc3)cccc12", "note": "[LY294002, 2-(4-morpholinyl)-8-phenyl-4H-1-benzopyran-4-one]", "values": [{"measurement": "ET-1-stimulated phosphorylation of AKT", "setting": "AKT; [3]", "result": "inhibited"}]}
{"molecule": "COc1cccc(-c2cc(=O)c3ccccc3o2)c1N", "note": "[PD98059, 2-(2-Amino-3-methoxyphenyl)-4H-1-benzopyran-4-one]", "values": [{"measurement": "ET-1-stimulated phosphorylation of ERK1/2", "setting": "ERK1/2; [3]", "result": "inhibited"}]}
{"molecule": "C[S+]([O-])c1ccc(-c2nc(-c3ccncc3)c(-c3ccc(F)cc3)[nH]2)cc1", "note": "(stereo not shown) [SB203580]", "values": [{"measurement": "phosphorylation of p38", "setting": "p38; [4]", "result": "not stimulated by ET-1 or inhibited"}]}
{"molecule": "N#CC(=C(N)Sc1ccccc1N)C(C#N)=C(N)Sc1ccccc1N", "note": "[U0126, 1,4-diamino-2,3-dicyano-1,4-bis [2-aminophenylthio]butadiene]", "values": [{"measurement": "ET-1-stimulated phosphorylation of ERK1/2", "setting": "ERK1/2; inhibitor 25 μM pretreated 30 minutes, then 100 nM ET-1", "result": "inhibited"}]}
{"molecule": "ET-1: endothelin-1, one of the strongest vasoconstrictors; stimulus used on 3T3-L1 adipocytes", "values": [{"measurement": "phosphorylation of p38 on ET-1 stimulation", "setting": "p38; 100 nM ET-1", "result": "not altered; also recorded: not stimulated"}, {"measurement": "time of maximum phosphorylation of ERK1/2", "setting": "ERK1/2; [5]", "result": 2, "unit": "min"}, {"measurement": "phosphorylation of ERK1/2", "setting": "ERK1/2; [6]", "result": "increased phosphorylation"}, {"measurement": "time of maximum phosphorylation of JNKs", "setting": "JNKs; [5]", "result": 15, "unit": "min"}, {"measurement": "phosphorylation of JNKs", "setting": "JNKs; [6]", "result": "increased phosphorylation"}, {"measurement": "phosphorylation of AKT", "setting": "AKT; [6]", "result": "increased phosphorylation"}, {"measurement": "phosphorylation of STAT3", "setting": "STAT3; [6]", "result": "increased phosphorylation"}, {"measurement": "increase of resistin mRNA levels", "setting": "resistin mRNA; 10 nM ET-1, 2 hours", "result": 50, "unit": "%"}, {"measurement": "increase of resistin mRNA levels", "setting": "resistin mRNA; 50 nM ET-1, 2 hours", "result": 100, "unit": "%"}, {"measurement": "increase of resistin mRNA levels", "setting": "resistin mRNA; 100 nM ET-1, 0.25-12 hours after treatment, differentiated 3T3-L1 adipocytes", "result": "100-250%"}, {"measurement": "increase of resistin mRNA levels", "setting": "resistin mRNA; 100 nM ET-1, 2 hours", "result": 200, "unit": "%"}, {"measurement": "duration of ET-1 incubation that causes the maximum effect on resistin mRNA levels", "setting": "resistin mRNA; 100 nM ET-1, time course 0-24 hours", "result": 2, "unit": "h"}, {"measurement": "increase of resistin protein levels", "setting": "resistin protein; 10 nM ET-1", "result": "about 120%"}, {"measurement": "increase of resistin protein levels", "setting": "resistin protein; 50 nM ET-1", "result": "~130", "unit": "%"}, {"measurement": "increase of resistin protein levels", "setting": "resistin protein; 100 nM ET-1", "result": "~140", "unit": "%"}]}
{"molecule": "tyrphostin [AG490]", "values": [{"measurement": "ET-1-stimulated phosphorylation of STAT3", "setting": "STAT3; [4]", "result": "inhibited"}]}
